Results: PubChem BioAssay (NCI)
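Cells were grown in 96-well plates and exposed to each compound for 48 hours at five concentrations; endpoints were interpolated linearly between bracketing concentrations, or set to the highest concentration if not reached. Definition used: TGI = concentration required for complete inhibition of growth.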

Columns and labels:
Assay in all cases: NCI-60 cell line screen, 48 h
HL-60(TB) leukemia = system: HL-60(TB) leukemia
HS 578T breast = system: HS 578T breast
HT29 colon = system: HT29 colon
K-562 leukemia = system: K-562 leukemia
MALME-3M melanoma = system: MALME-3M melanoma
NCI-H23 lung = system: NCI-H23 lung
SF-539 CNS = system: SF-539 CNS
SK-OV-3 ovarian = system: SK-OV-3 ovarian
SNB-75 CNS = system: SNB-75 CNS
TK-10 renal = system: TK-10 renal

## CCC(O)(Cc1ccc(OC)cc1)c1ccc(OC)cc1 (stereo not given)
HL-60(TB) leukemia
  TGI: > 100 µM
HS 578T breast
  TGI: > 100 µM
HT29 colon
  TGI: > 100 µM
K-562 leukemia
  TGI: > 100 µM
MALME-3M melanoma
  TGI: > 100 µM
NCI-H23 lung
  TGI: > 100 µM
SF-539 CNS
  TGI: > 100 µM
SK-OV-3 ovarian
  TGI: > 100 µM
SNB-75 CNS
  TGI: > 100 µM
TK-10 renal
  TGI: > 100 µM

## C=C(C)OCOCCOC
HL-60(TB) leukemia
  TGI: > 100 µM
HS 578T breast
  TGI: > 100 µM
HT29 colon
  TGI: > 100 µM
K-562 leukemia
  TGI: > 100 µM
MALME-3M melanoma
  TGI: > 100 µM
NCI-H23 lung
  TGI: > 100 µM
SF-539 CNS
  TGI: > 100 µM
SK-OV-3 ovarian
  TGI: > 100 µM
SNB-75 CNS
  TGI: > 100 µM
TK-10 renal
  TGI: > 100 µM

## O=C1C=CC(=O)c2c(O)c(N3CCC[C@H]3CO)c(Cl)c(O)c21
HL-60(TB) leukemia
  TGI: 0.249 µM
HS 578T breast
  TGI: > 8.27 µM
HT29 colon
  TGI: > 10 µM
K-562 leukemia
  TGI: 1.87 µM
MALME-3M melanoma
  TGI: 3.21 µM
NCI-H23 lung
  TGI: 4.61 µM
SF-539 CNS
  TGI: > 10 µM
SK-OV-3 ovarian
  TGI: > 10 µM
SNB-75 CNS
  TGI: > 10 µM
TK-10 renal
  TGI: 5.57 µM

## CCC(CO)Nc1nc(NCc2ccccc2)c2ncn(C(C)C)c2n1 (stereo not given)
HL-60(TB) leukemia
  TGI: > 70.5 µM
HS 578T breast
  TGI: 27.3 µM
HT29 colon
  TGI: 52.5 µM
K-562 leukemia
  TGI: > 100 µM
MALME-3M melanoma
  TGI: 59.3 µM
NCI-H23 lung
  TGI: 36.1 µM
SF-539 CNS
  TGI: 26.4 µM
SK-OV-3 ovarian
  TGI: > 100 µM
SNB-75 CNS
  TGI: 26.8 µM
TK-10 renal
  TGI: > 84.6 µM

## CC(C)c1cccc(C(C)C)c1NC(=O)/C(CC(=O)CC(c1ccccc1)c1c(O)c2ccccc2oc1=O)=N/O (stereo not given)
HL-60(TB) leukemia
  TGI: > 100 µM
HS 578T breast
  TGI: > 100 µM
HT29 colon
  TGI: > 100 µM
K-562 leukemia
  TGI: > 100 µM
MALME-3M melanoma
  TGI: > 100 µM
NCI-H23 lung
  TGI: > 100 µM
SF-539 CNS
  TGI: > 100 µM
SK-OV-3 ovarian
  TGI: > 100 µM
SNB-75 CNS
  TGI: > 100 µM
TK-10 renal
  TGI: > 100 µM

## CN1C(=O)N(C)C(O)C(Cl)(Br)C1=O (stereo not given)
HL-60(TB) leukemia
  TGI: > 100 µM
HS 578T breast
  TGI: > 100 µM
HT29 colon
  TGI: > 100 µM
K-562 leukemia
  TGI: > 100 µM
MALME-3M melanoma
  TGI: > 100 µM
NCI-H23 lung
  TGI: > 100 µM
SF-539 CNS
  TGI: > 100 µM
SK-OV-3 ovarian
  TGI: > 100 µM
SNB-75 CNS
  TGI: > 100 µM
TK-10 renal
  TGI: > 100 µM

## CN(C)c1ccc(/C=C(\NC(=O)c2ccccc2)c2nn(C)c(=O)o2)cc1
HL-60(TB) leukemia
  TGI: > 100 µM
HS 578T breast
  TGI: > 100 µM
HT29 colon
  TGI: > 100 µM
K-562 leukemia
  TGI: > 100 µM
MALME-3M melanoma
  TGI: > 100 µM
NCI-H23 lung
  TGI: > 100 µM
SF-539 CNS
  TGI: > 100 µM
SK-OV-3 ovarian
  TGI: > 100 µM
SNB-75 CNS
  TGI: 46.8 µM
TK-10 renal
  TGI: > 100 µM

## COc1cc(C(c2c(O)c3ccccc3oc2=O)c2c(O)c3ccccc3oc2=O)cc(Br)c1O
HL-60(TB) leukemia
  TGI: 64.2 µM
HS 578T breast
  TGI: 51.8 µM
HT29 colon
  TGI: 37.1 µM
K-562 leukemia
  TGI: > 100 µM
MALME-3M melanoma
  TGI: 31 µM
NCI-H23 lung
  TGI: 42.7 µM
SF-539 CNS
  TGI: 33.7 µM
SK-OV-3 ovarian
  TGI: 35.8 µM
SNB-75 CNS
  TGI: 39.4 µM
TK-10 renal
  TGI: 30.6 µM

## COC(=O)Cc1ccc2c(cnn2-c2ccccc2)c1OC
HL-60(TB) leukemia
  TGI: > 10 µM
HS 578T breast
  TGI: > 10 µM
HT29 colon
  TGI: > 10 µM
K-562 leukemia
  TGI: > 10 µM
MALME-3M melanoma
  TGI: > 10 µM
NCI-H23 lung
  TGI: > 10 µM
SF-539 CNS
  TGI: > 10 µM
SK-OV-3 ovarian
  TGI: > 10 µM
SNB-75 CNS
  TGI: > 10 µM
TK-10 renal
  TGI: > 10 µM

## CCP(=O)(OC)C1=CCN(C(=O)OCC[Si](C)(C)C)CC1 (stereo not given)
HL-60(TB) leukemia
  TGI: > 100 µM
HS 578T breast
  TGI: > 100 µM
HT29 colon
  TGI: > 100 µM
K-562 leukemia
  TGI: > 100 µM
MALME-3M melanoma
  TGI: > 100 µM
NCI-H23 lung
  TGI: > 100 µM
SF-539 CNS
  TGI: > 100 µM
SK-OV-3 ovarian
  TGI: > 100 µM
SNB-75 CNS
  TGI: > 100 µM
TK-10 renal
  TGI: > 100 µM

## COc1ccc(OC2OC(CO)C(OCc3ccccc3)C(OCc3ccccc3)C2OCc2ccccc2)cc1 (stereo not given)
HL-60(TB) leukemia
  TGI: > 100 µM
HS 578T breast
  TGI: > 100 µM
HT29 colon
  TGI: > 100 µM
K-562 leukemia
  TGI: > 100 µM
MALME-3M melanoma
  TGI: > 100 µM
NCI-H23 lung
  TGI: > 100 µM
SF-539 CNS
  TGI: > 100 µM
SK-OV-3 ovarian
  TGI: > 100 µM
SNB-75 CNS
  TGI: > 100 µM
TK-10 renal
  TGI: > 100 µM

## O=C1C=CC=C/C1=C1\N=C(c2ccccc2OCC(=O)c2ccccc2)SS1
HL-60(TB) leukemia
  TGI: > 100 µM
HS 578T breast
  TGI: > 100 µM
HT29 colon
  TGI: > 100 µM
K-562 leukemia
  TGI: > 100 µM
MALME-3M melanoma
  TGI: > 100 µM
NCI-H23 lung
  TGI: > 100 µM
SF-539 CNS
  TGI: > 100 µM
SK-OV-3 ovarian
  TGI: > 100 µM
SNB-75 CNS
  TGI: 65.8 µM
TK-10 renal
  TGI: > 100 µM

## O=C(O)c1cccc2cccc(-c3cccc4cccc(C(=O)O)c34)c12
HL-60(TB) leukemia
  TGI: > 100 µM
HS 578T breast
  TGI: > 100 µM
HT29 colon
  TGI: > 100 µM
K-562 leukemia
  TGI: > 100 µM
MALME-3M melanoma
  TGI: > 100 µM
NCI-H23 lung
  TGI: > 100 µM
SF-539 CNS
  TGI: > 100 µM
SK-OV-3 ovarian
  TGI: > 100 µM
SNB-75 CNS
  TGI: > 100 µM
TK-10 renal
  TGI: > 100 µM

## CC1=NN(c2nc(N)nc(-c3sccc3N)n2)C(C)(C)C1
HL-60(TB) leukemia
  TGI: > 100 µM
HS 578T breast
  TGI: > 100 µM
HT29 colon
  TGI: > 100 µM
K-562 leukemia
  TGI: > 100 µM
MALME-3M melanoma
  TGI: > 100 µM
NCI-H23 lung
  TGI: > 100 µM
SF-539 CNS
  TGI: > 100 µM
SK-OV-3 ovarian
  TGI: > 100 µM
SNB-75 CNS
  TGI: > 100 µM
TK-10 renal
  TGI: > 100 µM

## CN(C)CCCNC(=O)c1cc(NC(=O)c2cc(NC(=O)CCCn3c4ccccc4c4ccccc43)cn2C)cn1C
HL-60(TB) leukemia
  TGI: > 72.4 µM
HS 578T breast
  TGI: 49.7 µM
HT29 colon
  TGI: > 100 µM
K-562 leukemia
  TGI: 11.6 µM
MALME-3M melanoma
  TGI: > 49 µM
NCI-H23 lung
  TGI: 39.3 µM
SF-539 CNS
  TGI: 62.6 µM
SK-OV-3 ovarian
  TGI: 30.8 µM
SNB-75 CNS
  TGI: 39.1 µM
TK-10 renal
  TGI: 39.3 µM

## Cc1cc(C)c2c(=O)cc(-c3cccc(F)c3)[nH]c2n1
HL-60(TB) leukemia
  TGI: 0.226 µM
HS 578T breast
  TGI: 3.36 µM
HT29 colon
  TGI: 1.8 µM
K-562 leukemia
  TGI: > 32.1 µM
MALME-3M melanoma
  TGI: > 100 µM
NCI-H23 lung
  TGI: 11.2 µM
SF-539 CNS
  TGI: 4.54 µM
SK-OV-3 ovarian
  TGI: > 100 µM
SNB-75 CNS
  TGI: > 100 µM
TK-10 renal
  TGI: > 100 µM

## CCCCSc1nsc(N(C(=O)c2ccccc2)C(=O)c2ccccc2)n1
HL-60(TB) leukemia
  TGI: 74 µM
HS 578T breast
  TGI: 89.7 µM
HT29 colon
  TGI: 82.5 µM
K-562 leukemia
  TGI: 99.7 µM
MALME-3M melanoma
  TGI: 71.1 µM
NCI-H23 lung
  TGI: > 100 µM
SF-539 CNS
  TGI: 64.3 µM
SK-OV-3 ovarian
  TGI: > 100 µM
SNB-75 CNS
  TGI: 73.8 µM
TK-10 renal
  TGI: > 100 µM

## O=C(OCCN=c1c2ccccc2ccc2ccccc12)c1ccccc1
HL-60(TB) leukemia
  TGI: > 100 µM
HS 578T breast
  TGI: > 100 µM
HT29 colon
  TGI: > 100 µM
K-562 leukemia
  TGI: > 100 µM
MALME-3M melanoma
  TGI: > 100 µM
NCI-H23 lung
  TGI: > 100 µM
SF-539 CNS
  TGI: > 100 µM
SK-OV-3 ovarian
  TGI: > 100 µM
SNB-75 CNS
  TGI: > 100 µM
TK-10 renal
  TGI: > 100 µM
